According to PubChem BioAssay AID1912 (The Scripps Research Institute Molecular Screening Center, 2009):
Active and inactive are the calls of the source. The rule behind the calls is not given here.

The molecules below were run against Luciferin 4-monooxygenase (Photinus pyralis) (UniProt P08659) (assay: native FLuc inhibition dose response – biochemical, luminescence, artefact control for HSP90 inhibitor project (AID 1912)). Conditions: purified firefly luciferase.
Sequence of Luciferin 4-monooxygenase (Photinus pyralis) (P08659 whole entry, looked up): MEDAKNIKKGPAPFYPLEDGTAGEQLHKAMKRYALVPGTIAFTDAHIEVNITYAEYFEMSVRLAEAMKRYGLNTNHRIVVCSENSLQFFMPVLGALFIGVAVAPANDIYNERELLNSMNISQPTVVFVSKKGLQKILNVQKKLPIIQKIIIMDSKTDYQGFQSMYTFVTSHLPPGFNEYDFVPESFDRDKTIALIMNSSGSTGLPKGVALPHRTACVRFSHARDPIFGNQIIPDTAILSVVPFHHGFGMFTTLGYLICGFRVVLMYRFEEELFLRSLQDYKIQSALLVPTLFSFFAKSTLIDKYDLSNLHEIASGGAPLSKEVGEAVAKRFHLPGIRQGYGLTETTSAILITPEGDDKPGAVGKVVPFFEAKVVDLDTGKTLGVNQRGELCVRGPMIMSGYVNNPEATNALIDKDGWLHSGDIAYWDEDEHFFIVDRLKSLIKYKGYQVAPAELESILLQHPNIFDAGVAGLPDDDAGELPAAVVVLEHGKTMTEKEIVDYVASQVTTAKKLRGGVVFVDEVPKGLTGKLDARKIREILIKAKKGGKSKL

Structure (SMILES)	IC50
COc1cc(/C=N/Nc2ccc(Cl)c(C(=O)O)c2)ccc1OC(=O)c1ccc(F)cc1	> 60 µM (inactive)
O=C(CN1C(=O)c2ccccc2S1(=O)=O)c1ccccc1Cl	inactive
Cc1ccc(OCc2ccc(C(=O)O)o2)cc1C	inactive
C#CCn1cc(/C=C2\NC(=O)NC2=O)c2ccccc21	> 60 µM (inactive)
Cc1ccc(C(=O)CSc2ccccc2C(=O)O)cc1	inactive
C=CCOC(=O)c1sc(NC(=O)c2ccc(OC)cc2)nc1C	> 60 µM (inactive)
Nc1cc(-c2ccccc2)ccc1O	> 60 µM (inactive)
COCCn1c(C)cc(C(=O)Cn2nc(C(=O)O)c3ccccc3c2=O)c1C	inactive
CC(=O)Nc1ccc(NC2=C/C(=N/S(=O)(=O)c3cccs3)c3ccccc3C2=O)cc1	> 60 µM (inactive)
COC(=O)c1ccccc1OCCCOc1ccc(C)cc1OC	> 60 µM (inactive)
CC(=O)Oc1ccc(Nc2ccccc2)cc1	> 60 µM (inactive)
CC1=NN(c2ccccc2)C(=O)/C1=C\N(O)c1ccccc1	> 60 µM (inactive)
CCOc1ccc(-c2nc(CN3CCCCC3CCn3cccn3)c(C)o2)cc1 (configuration not stated)	> 60 µM (inactive)
Cc1ccc(S(=O)(=O)/N=C2\C=C(Nc3cccc(C(=O)O)c3)C(=O)c3ccccc32)c(C)c1	> 60 µM (inactive)
CCOC(=O)c1csc(COc2ccc(OC)cc2)n1	> 60 µM (inactive)
O=C(CN1C(=O)c2ccccc2S1(=O)=O)N1CCc2ccccc21	> 60 µM (inactive)
O=[N+]([O-])c1ccc(S(=O)(=O)N2CCN=C2SCc2ccc(F)cc2)cc1	> 60 µM (inactive)
O=c1oc2ccc(Cl)cc2nc1/C=C(\O)c1cccs1	> 60 µM (inactive)
CCc1ccc(S(=O)(=O)/N=C2\C=C(Nc3ccc(O)cc3)C(=O)c3ccccc32)cc1	> 60 µM (inactive)
COC(=O)c1cc(C)nc2c1C(=O)C(=O)C=C2N1CCOCC1	> 20 µM (inactive)
CC(=O)CSc1nnc(-c2ccc3c(c2)OCO3)o1	inactive
Cc1cc(C)c2nc(N3CCC(C(=O)NCCCN4CC(C)CC(C)C4)CC3)sc2c1 (configuration not stated)	> 60 µM (inactive)
C=CCc1ccc(OCc2ccc(C(=O)OC)o2)c(OC)c1	> 60 µM (inactive)
Cc1cc2ccccc2n1CCNC(=O)c1ccccc1	> 60 µM (inactive)
Cc1cc(C(=O)Cn2nc(C(=O)O)c3ccccc3c2=O)c(C)n1CC(F)(F)F	> 60 µM (inactive)
COc1cc(/C=N/Nc2ccc(Cl)c(C(=O)O)c2)ccc1OC(=O)c1cccs1	> 60 µM (inactive)
CC1CCN(c2ccc(-c3cccc(NC(=O)C(F)(F)F)c3)nn2)CC1	> 60 µM (inactive)
